For one experiment, the target named is T1, hCBS-FL (Homo sapiens, UniProt P35520).
T1 sequence (P35520 1-551): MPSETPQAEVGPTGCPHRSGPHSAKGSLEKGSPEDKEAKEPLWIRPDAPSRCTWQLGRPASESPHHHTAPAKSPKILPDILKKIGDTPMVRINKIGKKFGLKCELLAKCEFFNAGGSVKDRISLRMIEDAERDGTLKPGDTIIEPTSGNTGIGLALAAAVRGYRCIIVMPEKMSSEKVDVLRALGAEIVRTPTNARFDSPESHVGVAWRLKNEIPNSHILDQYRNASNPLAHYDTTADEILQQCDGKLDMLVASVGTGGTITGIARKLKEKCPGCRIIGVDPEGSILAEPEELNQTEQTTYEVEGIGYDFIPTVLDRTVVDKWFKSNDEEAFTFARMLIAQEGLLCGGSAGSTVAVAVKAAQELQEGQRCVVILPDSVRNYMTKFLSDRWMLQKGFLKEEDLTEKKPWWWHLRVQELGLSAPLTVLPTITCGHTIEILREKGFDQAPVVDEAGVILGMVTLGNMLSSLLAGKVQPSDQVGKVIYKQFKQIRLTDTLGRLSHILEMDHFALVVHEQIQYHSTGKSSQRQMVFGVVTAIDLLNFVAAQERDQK
Nature of the experiment: CBS enzyme assay, H2S quantified by methylene blue method. Conditions: 150 nM hCBS-FL, 200 μM SAM, 4 mM L-Cys, 4 mM D,L-Hcys, Tris-HCl pH 8.6, 80 min. Set-up: human CBS or hCSE full-length (CBS-FL or CSE) was subcloned into pGEX-KG, pcDNA3 or pCDH vector; GST (N); made in house; host or cells: E. coli BL21. It counts as biochemical. The method, then:
Fig. 1 CH004 inhibits the activity of hCBS in the in vitro purified enzyme assays under different assay conditions. a A scheme for the cascade enzymatic reactions catalyzed by CBS or CSE. Cth, cystathionine. b, c Inhibitory effects of CH004 on the activity of hCBS-413 (b) or hCSE (c). The enzyme activities were monitored for various concentrations of CH004 under the standard conditions (50 mM Tris-HCl, pH 8.6; “Materials and Methods” section). The result is shown as percentages of the control (DMSO, 100%). The data are shown as means ± SDS (n = 3). d The dose-dependent inhibition of CH004 on the hCBS-413 activity was measured by the tandem-well-based assay under the standard conditions except using 50 mM Hepes buffer (pH 7.4) instead of 50 mM Tris-HCl (pH 8.6). Means ± SDs (n = 3). e The dose-dependent inhibition of CH004 on the CBS activity measured by methylene blue method. […] After 80 min, the assay was stopped by added 10 μL 10% ZnAC and the generated H2S was quantified by N,N-dimethyl-p-phenylenediamine to give an absorbance at 670 nm (for details, see Materials and Methods section; ref. [53]). […]
^3The IC50 were determined for hCBS-FL by Methyl Blue method (ref. 1).

The test system of experiment [1] is mouse embryonic fibroblasts (MEF). Nature of the experiment: lipid ROS (BODIPY 581/591 C11, flow cytometry). The class given is cell-based. Conditions: low micromolar concentrations, 24 h. The protocol: To detect lipid peroxidation upon treatment with CH004, HepG2 cells or mouse embryonic fibroblasts (MEF) were seeded in 12-well plates with ~ 1.8 × 10^5 cells per well for 24 h. After treatment with the inhibitor for another 24 h, cells were stained with BODIPY® 581/591 C11 (Invitrogen) for 1 h at a final concentration of 2 μM at 37 °C[57]. The cells were then resuspended in an appropriate amount of PBS after being washed once with PBS. Lipid peroxidation, i.e., lipid ROS, was analyzed by detection of the fluorescence using an LSR Fortessa flow cytometer. The data were recorded at 530/30 nm (green fluorescent) and 670/30 nm (red fluorescent) wavelengths after excitation at 488 nm. A minimum of 20000 events was used for the analysis. All the experiments were independently repeated twice in triplicate.
Figure S15. The mode of actions for CH004 in cells. […] Indicated HEK293T stable cell lines were treated with CH004 at a concentration of 10 µM for 24 h, and the cell viability was then measured using the CellTiter96® Aqueous One Solution Cell Proliferation Assay (Promega). Means ± SDs (n=3). (B-C) CH004 or erastin triggers ferroptosis in mouse embryonic fibroblasts (MEF). […] The cell viability was accordingly quantified using the CellTiter96® Aqueous One Solution Cell Proliferation Assay (Promega) and the results were shown as percentages of DMSO (control, 100%). […]

Experiment [2] concerns the target T2, human dopa decarboxylase (hDDC) (Homo sapiens, UniProt P20711).
T2 construct: made in house
Nature of the experiment: purified hDDC enzyme assay. It counts as biochemical. The protocol: The IC50 values of CH004 for hCBS-413, hCBS-413 mutants, hCBS-FL, hCSE or hDDC were determined according to the standard assay conditions otherwise indicated.

pIC50: −log10 of the molar value. Bounds are passed on as bounds.

T2 sequence (P20711 whole entry): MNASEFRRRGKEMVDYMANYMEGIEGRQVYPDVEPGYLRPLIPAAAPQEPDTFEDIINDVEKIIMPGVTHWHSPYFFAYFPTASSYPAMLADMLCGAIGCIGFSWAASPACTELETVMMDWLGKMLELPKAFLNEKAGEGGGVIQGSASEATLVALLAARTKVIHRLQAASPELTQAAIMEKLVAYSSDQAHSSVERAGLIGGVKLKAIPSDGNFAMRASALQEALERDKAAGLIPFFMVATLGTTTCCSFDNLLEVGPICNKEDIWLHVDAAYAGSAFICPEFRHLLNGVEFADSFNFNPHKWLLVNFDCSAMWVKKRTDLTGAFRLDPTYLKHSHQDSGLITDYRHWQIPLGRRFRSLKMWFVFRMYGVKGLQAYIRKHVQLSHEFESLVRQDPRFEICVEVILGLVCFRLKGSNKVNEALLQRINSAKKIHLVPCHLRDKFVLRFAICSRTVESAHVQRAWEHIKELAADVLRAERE

Usually pIC50 stands for −log10 of the IC50, conventionally taken in molar units. Low values mean a high IC50, high ones a low IC50. Take `Cn1nc(Cc2ccccc2)nc2c(=O)n(C)c(=O)nc1-2` [CH004, 3-benzyl-1,6-dimethylpyrimido[5,4-e][1,2,4]triazine-5,7(1H,6H)-dione]: the pIC50 is 5.77 against hCBS-FL and below 3.40 in experiment [2] (standard conditions). Further, the “induction of ferroptosis (lipid ROS) in MEF” value in experiment [1] was around 2 fold. In addition, the “Fold selectivity hDDC vs hCBS-413” value in experiment [2] (IC50 of hDDC / IC50 of hCBS-413) was > 400 (> 400) fold.

The record behind these values is PMC6158189, “A pharmacological probe identifies cystathionine β-synthase as a new negative regulator for ferroptosis” (Cell Death & Disease, 2018).
